Experiments:
[1] = molecular target: T1, PIP4K2 B (Homo sapiens, UniProt P78356); assay: Kinase Assay-PIP4K2 B (Transcreener FI); type: biochemical
T1 construct: made in house; host or cells: E. coli
T1 sequence (P78356 1-416): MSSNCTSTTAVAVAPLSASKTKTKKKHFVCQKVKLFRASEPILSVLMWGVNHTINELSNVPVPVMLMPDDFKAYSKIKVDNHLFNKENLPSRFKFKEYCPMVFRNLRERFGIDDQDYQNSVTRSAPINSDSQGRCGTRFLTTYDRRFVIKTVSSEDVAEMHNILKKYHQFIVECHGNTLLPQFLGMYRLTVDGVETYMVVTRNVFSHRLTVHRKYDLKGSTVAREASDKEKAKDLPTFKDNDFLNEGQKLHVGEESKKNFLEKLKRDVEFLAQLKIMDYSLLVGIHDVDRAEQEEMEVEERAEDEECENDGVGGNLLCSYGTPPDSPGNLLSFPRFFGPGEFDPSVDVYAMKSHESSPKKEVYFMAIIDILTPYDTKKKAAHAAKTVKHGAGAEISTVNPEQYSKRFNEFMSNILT
Source text: GST tagged PIP4KtypeIIA and B enzymes were overexpressed in E. Coli and purified to >80% homogeneity. Phosphatidyl inositol-5-phosphate (PI5P, Cat. #850152, Avanti Polar Lipids Inc.) was used as the lipid substrate and phosphatidyl ethanolamine (DOPE 18:1, Cat. #850725, Avanti Polar Lipids Inc.) was used as the carrier lipid for assays. Ultrapure ATP and GTP was purchased from Bellbrooke Labs. ADP Glo reagents were obtained from Promega. Transcreener FI reagent was obtained from Bellbrooke labs.
• 1. HEPES buffer mix: 200 mM HEPES pH 7.4, 50 mM MgCl2, 0.05% v/v triton X 100 • 2. HNE buffer: 20 mM HEPES, pH 7.4, 100 mM NaCl, 0.5 mM EGTA • 3. H:E buffer: 30 mM HEPES, pH 7.4, 1 mM EGTA
GST-tagged PIP4KtypeIIB (3.4 μl, 2.77 mg/mL) was diluted to 5 mL using HNE buffer to yield 5× enzyme stock (25 nM)
Lipid Preparation: In a 10 mL pyrex glass vial, […] were suspended in 2.5 mL of HEPES buffer mix and 2.5 mL of H:E buffer. The contents were mixed and sonicated for 3 min to yield a translucent lipid stock.
Compound Preparation: Compounds were stored as 5 mM stocks in neat DMSO as room temperature in glass vials. 5 mM stocks were diluted to 2 mM and then serially diluted (3×) in neat DMSO in 96 well polypropylene plates. From the serially diluted stocks, 3 μL was delivered into 250 μL of 25% DMSO (in water) to generate 5× compound stocks. Typically, the highest compound conc. was 24 μM.
The assay volume was kept at 25 μL. To each well of the reaction plate, 10 μL of lipid stock (1:1 ratio PI5P:DOPE) was delivered. This was followed by the addition of 5 μL of compound in 25% DMSO. Then, to each well, 5 μL of 25 nM (5×) typeIIB enzyme was delivered. The contents were mixed well and incubated for 1 h at 27° C. After 1 h, reaction was initiated by adding 5 μL of 500 μM GTP and the contents were mixed well with a multi-channel pipetteman. The final concentration of the reagents are as follows: 50 mM HEPES, pH 7.3, 10 mM MgCl2, 20 mM NaCl, 0.01% v/v triton-X100, 5% DMSO, 100 μM GTP, 80 μM (2 μg) PI5P, 2 μg DOPE, and 5 nM PIP4KIIB Typically, the highest conc. of compounds was 4.8 μM and the lowest conc. was 0.
After 2 h, the reaction was quenched by adding 25 μL of transcreener FI reagent. The contents were incubated at rt for 1 h and the Fluorescence (Ex: 584 Em: 623) was read using Molecular Devices Paradigm plate reader. […] The blanks were averaged and subtracted from all other wells. Using a calibration curve, RFU was converted to μM GDP (product). IC50 was calculated by plotting the residual activity (expressed as % No inhibitor control) vs. log [Inh. conc.].

[2] = tested on: MOLM-16; assay: MOLM-16 EC50 assay; type: cell-based; details: MOLM16
[3] = molecular target: T2, PIP4K2A (Homo sapiens, UniProt P48426); assay: Kinase Assay-PIP4K2 A (ADP-Glo); type: biochemical
T2 construct: made in house; host or cells: E. coli
T2 sequence (P48426 1-406): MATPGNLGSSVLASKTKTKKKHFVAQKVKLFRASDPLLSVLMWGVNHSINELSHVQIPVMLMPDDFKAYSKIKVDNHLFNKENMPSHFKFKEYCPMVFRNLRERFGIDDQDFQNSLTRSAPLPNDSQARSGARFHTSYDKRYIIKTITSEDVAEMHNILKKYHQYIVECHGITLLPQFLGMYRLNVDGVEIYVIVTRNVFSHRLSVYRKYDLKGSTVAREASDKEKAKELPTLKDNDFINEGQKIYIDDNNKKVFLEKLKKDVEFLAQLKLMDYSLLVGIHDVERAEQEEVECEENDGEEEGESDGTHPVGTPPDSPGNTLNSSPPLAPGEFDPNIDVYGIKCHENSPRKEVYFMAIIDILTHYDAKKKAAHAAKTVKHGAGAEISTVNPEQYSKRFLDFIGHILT
Description: Dilution series of the compounds were prepared in DMSO at 100 times the final assay concentration (n1=n0/3 in 10 points). The compounds were further diluted to three times the assay concentration in assay buffer (20 mM MOPS pH 7.2, 25 mM magnesium chloride, 0.005% Tween 20). 6 μL of the diluted compounds were added to a 384 well assay plate followed by 9 μL of a mix consisting of 4 nM PIP4K2A (full length protein, SignalChem) and 100 μM PI(5)P diC8 (Tebu-Bio). Enzyme and compounds were pre-incubated at room temperature for 15 minutes.
Then 3 μL of a solution containing 60 μM ATP (Promega) in assay buffer was added to the wells containing compound and enzyme and mixing was performed by pipetting several times. The reaction was incubated at room temperature for 1 h. Then 18 μL of ADP-Glo™ Reagent (Promega) was added to stop the kinase reaction and deplete the unconsumed ATP, mixing was performed by pipetting several times. The plate was incubated at room temperature for 40 minutes before addition of 36 μL of Kinase Detection Reagent (Promega) to convert ADP to ATP and introduce luciferase and luciferin to detect ATP. The reaction was incubated at room temperature for 40 minutes before the luminescence was measured in a in a Victor 3V 1420 multilabel counter (Perkin Elmer).
Percent inhibition of the compounds as compared to dimethyl sulfoxide treated control samples was calculated. Compound concentration versus percent inhibition were fitted to generate IC50 values. […]

## COc1nc(Nc2cncc(N(C)CC(=O)N3CCNCC3)c2)ncc1-c1ccc(N2CCCC2=O)cc1 [Compound 36, 1-(4-{4-methoxy-2-[(5-{methyl[2-oxo-2-(piperazin-1-yl)ethyl]amino}pyridin-3-yl)amino]pyrimidin-5-yl}phenyl)pyrrolidin-2-one]
[1]
  IC50: 10 to 100 nM
[2]
  EC50: 100 to 1000 nM
[3]
  IC50: 1 to 10 nM

## COc1nc(Nc2cncc(N3CC[C@H](N(C)C)C3)c2)ncc1-c1ccc(-c2nnccc2C)cc1 [Compound 37, N-{5-[(3S)-3-(dimethylamino)pyrrolidin-1-yl]pyridin-3-yl}-4-methoxy-5-[4-(4-methylpyridazin-3-yl)phenyl]pyrimidin-2-amine]
[1]
  IC50: 10 to 100 nM
[2]
  EC50: 10 to 100 nM
[3]
  IC50: 10 to 100 nM

## COc1nc(Nc2cncc(N3CC[C@H](N(C)C)C3)c2)ncc1-c1ccc(N2CCCC2=O)cc1 [Compound 38, 1-{4-[2-({5-[(3S)-3-(dimethylamino)pyrrolidin-1-yl]pyridin-3-yl}amino)-4-methoxypyrimidin-5-yl]phenyl}pyrrolidin-2-one]
[1]
  IC50: 10 to 100 nM
[2]
  EC50: 10 to 100 nM
[3]
  IC50: 10 to 100 nM

## COc1nc(Nc2cncc(N(C)CCC(=O)N3CCNCC3)c2)ncc1-c1ccc(N2CCCC2=O)cc1 [Compound 39, 1-(4-{4-methoxy-2-[(5-{methyl[3-oxo-3-(piperazin-1-yl)propyl]amino}pyridin-3-yl)amino]pyrimidin-5-yl}phenyl)pyrrolidin-2-one]
[1]
  IC50: 10 to 100 nM
[2]
  EC50: 100 to 1000 nM
[3]
  IC50: 10 to 100 nM

## COc1nc(Nc2cncc(OCCN3CCC(F)(F)C3)c2)ncc1-c1ccc(-c2nnccc2C)cc1 [Compound 40, N-{5-[2-(3,3-difluoropyrrolidin-1-yl)ethoxy]pyridin-3-yl}-4-methoxy-5-[4-(4-methylpyridazin-3-yl)phenyl]pyrimidin-2-amine]
[1]
  IC50: 10 to 100 nM
[2]
  EC50: 100 to 1000 nM
[3]
  IC50: 10 to 100 nM

## COc1nc(Nc2cncc(OCCN3CCC(F)(F)C3)c2)ncc1-c1ccc(N2CCCC2=O)cc1 [Compound 41, 1-{4-[2-({5-[2-(3,3-difluoropyrrolidin-1-yl)ethoxy]pyridin-3-yl}amino)-4-methoxypyrimidin-5-yl]phenyl}pyrrolidin-2-one]
[1]
  IC50: 10 to 100 nM
[2]
  EC50: 10 to 100 nM
[3]
  IC50: 10 to 100 nM

— US12006332B2, “Aminopyrimidine derivatives as phosphatidylinositol phosphate kinase inhibitors” (HiberCell, Inc., priority 2019, dated 2024)
